In US5157052A, “Method for inhibiting IgE production” (priority 1990, dated 1992):

What was measured:
Assay type in all cases: in vivo, mouse (Balb/c female)
IgG2a = assay: Serum IgG2a in anti-IgD stimulated mice (two site sandwich ELISA, Assay C); settings: for IgG2a ±: Table 12, day 8 (control 849)
Procedure: (§1) Sera from mice treated with compounds in accordance with the method of the invention are analyzed for levels of IgG1, IgG2a, IgG3, and IgM.
Measurement of mouse IgG2a by a two site sandwich ELISA is performed in substantial accordance with the teaching of Assay B except with the following changes. NuncImmulon II plates are used in this assay. The IgG2a standard is purchased from Southern Biotech. The standard curve is linear between 4-250 ng/ml. Serum containing IgG2a is diluted 1/6400 to 1/1,000,000. About a 1/6,000 dilution of goat anti mouse IgG2a (Southern Biotech) conjugated to alkaline phosphatase is used.
(§2) Sera from the mice described in Example 13 are analyzed for the levels of IgG1, IgG2a, and IgG3 by Assays B, C, and D, respectively.
(§3) Two groups of 4 Balb/c female mice per group are injected with both 100 μg FF1-4D5 antibody and 100 μg H∂A1 antibody. One of these groups is a stimulated control designated Group B. On day 3 and 4, the other group is injected with 40 μg (±) methyl 11α, 16-dihydroxy-1-methyl-9-oxoprosta-4Z,13E-dien-1-oate. Another group is injected with only PBS as an unstimulated control (Group A). On day -1 and 8, 50-100 μl of serum is recovered and analyzed for IgE, IgG1 and IgG2a by Assays A, B, and C, respectively.
(§4) 3 groups of 4 Balb/c female mice per group are injected with both 100 μg FF1-4D5 antibody and 100 μg H∂A1 antibody on day 0. Group A is given no further treatment. On day 3 and 4, one group of mice is injected with 20 μg (±) methyl 2-[2-[3R-3α-hydroxy-2β-(4-hydroxy-4-methyl-1E-octenyl-5-oxo-1α-cyclopentyl]-methyl]cyclopropanebutanoate (Group B) and another group with 20 μg (±) methyl 2-[2-[3R-3α-hydroxy-2β-(4-hydroxy-4-methyl-1E-octenyl)-5-oxo-1α-cyclopentyl]ethyl]cyclopropanepropanoate (Group C) as in Example 13. On day -1 and 8, 50-100 μl of serum is recovered and analyzed for IgE, IgG1, IgG2a and IgG3 by Assays A, B, C and D, respectively. The selectivity of inhibition of IgE is shown in Table 12.
(§5) Three groups of 5 Balb/c female mice per group are injected with both 100 μg FF1-4D5 antibody and 100 μg H∂A1 antibody on day 0. Group A is a control with no further treatment. On day 3 and 4, the mice are injected with 20 μg (±) methyl 11α,16-dihydroxy-4,4,16-trimethyl-9-oxoprosta-13E-en-1-oate (Group B) or 20 μg (±) methyl 11α,16-dihydroxy-16-methyl-9-oxoprosta-3,5Z,13E-trien-1-oate (Group C) as in Example 13. On day -1 and 8, […] of serum is recovered and analyzed for IgE, IgG1, IgG2a, IgG3 and IgM by Assays A, B, C, D and E, respectively.

IgG1 = assay: Serum IgG1 in anti-IgD stimulated mice (two site sandwich ELISA, Assay B)
Procedure: as §1
Mouse IgG1 measurement by a two site sandwich ELISA is as follows. About 5 μg of rabbit anti mouse IgG (Organon-Teknika-Cappel, Malvern, Pa.) is attached to the wells of a NuncImmulon 96 well plate and IgG1 levels are determined in substantial accordance with Assay A except with the following changes. The IgG1 standard is purchased from Southern BioTech, Birmingham, Ala., and stored at 10 μg/ml in 2% NBS in PBS at 4° C. The standard curve is prepared by diluting the mouse IgG1 standard in 0.05% Tween-80 in PBS, and is linear between 3.9 and 250 ng/ml. Serum containing IgG1 is diluted 1/10,000 to 1/1,000,000 in 0.05% Tween 80-PBS, to place the measurement within the standard curve. Standard IgG1 (or diluted serum) is incubated at about 37° C. for 1 hour and the plates are washed with 0.05% Tween 80-PBS as described in Assay A. About a 1/3,000 dilution of Goat anti mouse IgG1 (Southern Biotech, Birmingham, Ala.) conjugated to alkaline phosphatase in 0.05% Tween 80-PBS is added to each well and incubated at about 37° C. for 60 minutes. The plate is washed and colorimetric substrate, prepared as described by the manufacturer (Alkaline Phosphatase Substrate System, KPL, Gaithersburg, Md.), is added and optical density and data analysis is performed in the same manner as Assay A.
as §2, §3, §4, §5

IgM = assay: Serum IgM in anti-IgD stimulated mice (two site sandwich ELISA, Assay E); settings: 20 μg days 3 and 4; for inhibition of IgM: Example 25; for IgM ± SD: Table 14, day 8 (control 4147)
Procedure: as §1
Measurement of mouse IgM by a two site sandwich ELISA is performed in substantial accordance with the teachings of Assay B except for the following changes. About 250 ng of rabbit anti-mouse IgM (Zymed Laboratories) is used to coat a NuncImmulon 96 well plate. The IgM standard is purchased from Southern Biotech. The standard curve is linear between 8-500 ng/ml. Serum containing IgM is diluted 1/4,000 to 1/60,000. About a 1/10,000 dilution of goat anti mouse IgM conjugated to horse radish peroxidase is used as a combined primary antibody and developing reagent. 100 μl is added to each well and the plate is incubated at about 4° C. overnight. The colorimetric substrate is prepared and used as described in Assay A.
Two groups of 4 Balb/c female mice per group are injected with both 100 μg FF1-4D5 antibody and 100 μg H∂Al antibody. On day 3 and 4 the mice are injected with PBS (Group A) or 20 μg (±) methyl 11α,16-dihydroxy-16-ethyl-9-oxoprosta-5Z,13E-dien-1-oate (Group B) at 7 a.m., 1 p.m. and 7 p.m. in substantial accordance with the teaching of Example 13. On day -1, 7, 8, 9 and 11, 50-100 μl of serum is recovered and analyzed for IgE by Assay A and for IgM by Assay E. The results are shown in Table 6.
as §5

[1] = Table 14, 20 μg days 3 and 4, day 8 (control 1246)
[2] = Table 14, 20 μg days 3 and 4, day 8 (control 21703)
[3] = 40 μg IP days 3 and 4, day -1 baseline before treatment
[4] = Table 12, 20 μg days 3 and 4, day 8 (control 10525)

With CCCCC(C)(O)C/C=C/[C@H]1[C@H](O)CC(=O)[C@@H]1CCCC(C)(C)CCC(=O)OC (mixture of isomers) [(±) methyl 11α,16-dihydroxy-4,4,16-trimethyl-9-oxoprost-13E-en-1-oate] the “inhibition of IgG2a” value (IgG2a; 20 μg days 3 and 4, Example 25) was “not IgG1, IgG2a, IgG3 and IgM”, the “IgG2a ± SD” value (IgG2a; [1]) was 1019 ± 278 µg/mL and the “inhibition of IgG1” value (IgG1; 20 μg days 3 and 4, Example 25) was “not IgG1, IgG2a, IgG3 and IgM”. The “IgG1 ± SD” value (IgG1; [2]) was 22555 ± 5821 µg/mL, the “inhibition of IgM” value (IgM) was “not IgG1, IgG2a, IgG3 and IgM” and the “IgM ± SD” value (IgM) was 9792 ± 984 µg/mL.
For CCCCC(C)(O)C/C=C/[C@H]1[C@H](O)CC(=O)[C@@H]1C/C=C\CCCC(=O)OC (mixture of isomers) [(±) methyl 11α,16-dihydroxy-16-methyl-9-oxoprosta-5Z,13E-dien-1-oate], the “IgG2a ± SD” value (IgG2a; 2 μg IP days 3 and 4, day 7 (control 139)) was 114 ± 61 µg/mL, the “IgG2a ± SD” value (IgG2a; 2 μg IP days 3 and 4, day 8 (control 554)) was 277 ± 111 µg/mL and the “IgG2a ± SD” value (IgG2a; 2 μg IP days 3 and 4, day 9 (control 923)) was 1053 ± 256 µg/mL. The “IgG2a ± SD” value (IgG2a; 2 μg IP days 3 and 4, day 11 (control 951)) was 1124 ± 219 µg/mL, the “IgG2a ± SD” value (IgG2a; 2 μg IP days 3 and 4, day -1 baseline before treatment) was 25 ± 25 µg/mL and the “IgG2a ± SD” value (IgG2a; 5 μg IP days 3 and 4, day 7) was 133 ± 67 µg/mL. For the same compound, the “IgG2a ± SD” value (IgG2a; 5 μg IP days 3 and 4, day 8) was 481 ± 192 µg/mL, the “IgG2a ± SD” value (IgG2a; 5 μg IP days 3 and 4, day 9) was 1093 ± 245 µg/mL and the “IgG2a ± SD” value (IgG2a; 5 μg IP days 3 and 4, day 11) was 1540 ± 201 µg/mL. The “IgG2a ± SD” value (IgG2a; 5 μg IP days 3 and 4, day -1 baseline before treatment) was 58 ± 66 µg/mL, the “IgG2a ± SD” value (IgG2a; 10 μg IP days 3 and 4, day 7) was 107 ± 45 µg/mL and the “IgG2a ± SD” value (IgG2a; 10 μg IP days 3 and 4, day 8) was 276 ± 168 µg/mL. The “IgG2a ± SD” value (IgG2a; 10 μg IP days 3 and 4, day 9) was 855 ± 117 µg/mL, the “IgG2a ± SD” value (IgG2a; 10 μg IP days 3 and 4, day 11) was 1097 ± 289 µg/mL and the “IgG2a ± SD” value (IgG2a; 10 μg IP days 3 and 4, day -1 baseline before treatment) was 26 ± 7 µg/mL. The “IgG2a ± SD” value (IgG2a; 20 μg IP days 3 and 4, day 7) was 182 ± 105 µg/mL, the “IgG2a ± SD” value (IgG2a; 20 μg IP days 3 and 4, day 8) was 493 ± 187 µg/mL and the “IgG2a ± SD” value (IgG2a; 20 μg IP days 3 and 4, day 9) was 1170 ± 285 µg/mL. The “IgG2a ± SD” value (IgG2a; 20 μg IP days 3 and 4, day 11) was 2133 ± 862 µg/mL, the “IgG2a ± SD” value (IgG2a; 20 μg IP days 3 and 4, day -1 baseline before treatment) was 29 ± 9 µg/mL and the “IgG2a ± SD” value (IgG2a; 40 μg IP days 3 and 4, day 7) was 81 ± 12 µg/mL. The “IgG2a ± SD” value (IgG2a; 40 μg IP days 3 and 4, day 8) was 433 ± 314 µg/mL, the “IgG2a ± SD” value (IgG2a; 40 μg IP days 3 and 4, day 9) was 1177 ± 383 µg/mL and the “IgG2a ± SD” value (IgG2a; 40 μg IP days 3 and 4, day 11) was 1667 ± 675 µg/mL. For the same compound, the “IgG2a ± SD” value (IgG2a; [3]) was 23 ± 1 µg/mL, the “IgG1 ± SD” value (IgG1; 40 μg IP days 3 and 4, day 8) was 15666 ± 2300 µg/mL and the “IgG1 ± SD” value (IgG1; [3]) was 175 ± 32 µg/mL.
CCCCC(C)(O)C/C=C/[C@H]1[C@H](O)CC(=O)[C@@H]1CCC1CC1CCC(=O)OC (relative stereo) [(±) methyl 2-[2-[3R-3α-hydroxy-2β-(4-hydroxy-4-methyl-1E-octenyl)-5-oxo-1α-cyclopentyl]ethyl]cyclopropanepropanoate] was tested, and the “inhibition of IgG2a” value (IgG2a; 20 μg days 3 and 4, Example 23) was “not IgG1, IgG2a or IgG3”, the “IgG2a ±” value (IgG2a; 20 μg days 3 and 4) was 840 ± 484 µg/mL and the “inhibition of IgG1” value (IgG1; 20 μg days 3 and 4, Example 23) was “not IgG1, IgG2a or IgG3”. For the same compound, the “IgG1 ± SD” value (IgG1; [4]) was 22573 ± 5690 µg/mL.
For CCCCC(C)(O)C/C=C/[C@H]1[C@H](O)CC(=O)[C@@H]1CC1CC1CCCC(=O)OC (relative stereo) [(±) methyl 2-[2-[3R-3α-hydroxy-2β-(4-hydroxy-4-methyl-1E-octenyl)-5-oxo-1α-cyclopentyl]methyl]cyclopropanebutanoate], the “inhibition of IgG2a” value (IgG2a; 20 μg days 3 and 4, Example 23) was “not IgG1, IgG2a or IgG3”, the “IgG2a ±” value (IgG2a; 20 μg days 3 and 4) was 834 ± 235 µg/mL and the “inhibition of IgG1” value (IgG1; 20 μg days 3 and 4, Example 23) was “not IgG1, IgG2a or IgG3”. For the same compound, the “IgG1 ± SD” value (IgG1; [4]) was 14470 ± 2997 µg/mL.
In the case of CCCCC(C)(O)C/C=C/[C@H]1[C@H](O)CC(=O)[C@@H]1C/C=C\C=CCC(=O)OC (relative stereo) [(±) methyl 11α,16-dihydroxy-16-methyl-9-oxoprosta-3,5Z,13-trien-1-oate], the “inhibition of IgG2a” value (IgG2a; 20 μg days 3 and 4, Example 25) was “not IgG1, IgG2a, IgG3 and IgM”, the “IgG2a ± SD” value (IgG2a; [1]) was 1202 ± 338 µg/mL and the “inhibition of IgG1” value (IgG1; 20 μg days 3 and 4, Example 25) was “not IgG1, IgG2a, IgG3 and IgM”. The “IgG1 ± SD” value (IgG1; [2]) was 18320 ± 4695 µg/mL, the “inhibition of IgM” value (IgM) was “not IgG1, IgG2a, IgG3 and IgM” and the “IgM ± SD” value (IgM) was 7708 µg/mL.
